Results reported in patent US20220192179A1, “BIOMIMETIC ICE-INHIBITING MATERIAL AND CRYOPRESERVATION SOLUTION COMPRISING SAME” (priority 2019, published 2022).
Peptide text beside a SMILES is read from it.

What was measured:
[1] = Ice recrystallization inhibition (IRI) activity, splat-freezing method; type: physicochemical; conditions: for MLGS (%) relative to that of DPBS, compared with the unbound components: 20 μL DPBS solution, same concentration
Procedure: The IRI activity was assessed using “splat-freezing method”, wherein a sample was dissolved and dispersed into a DPBS solution, and 10-30 μL of the resulting solution was added dropwise onto the surface of a clean silicon disk pre-cooled at -60° C. at a height of no less than 1.0 m; the solution was slowly heated to -6° C. at a speed of 10° C. ·min^−1 by using a hot-cold stage, and was annealed for 30 min at this temperature; the sizes of ice crystals were observed and recorded by using a polarizing microscope and a high-speed camera. The hot-cold stage was sealed to ensure that the internal humidity was about 50%.
The IRI activity was assessed using “splat-freezing method”, wherein a sample was dissolved and dispersed into a DPBS solution, and 10-30 μL of the resultant solution was added dropwise onto the surface of a clean silicon disk precooled at −60° C. at a height of no less than 1.0 m; the solution was slowly heated to −6° C. at a speed of 10° C./min by using a hot-cold stage, and was annealed for 30 min at this temperature; the sizes of ice crystals were observed and recorded by using a polarizing microscope and a high-speed camera. The hot-cold stage was sealed to ensure that the internal humidity was about 50%.
The ice recrystallization inhibition (IRI) activity was assessed using “splat-freezing method”, wherein the two PVAs were separately dissolved and dispersed into DPBS solutions, and 10-30 μL of the resulting solution was added dropwise onto the surface of a clean silicon disk pre-cooled at −60° C. at a height of no less than 1.0 m; the solution was slowly heated to −6° C. at a speed of 10° C.·min^−1 by using a hot-cold stage, and was annealed for 30 min at this temperature; the sizes of ice crystals were observed and recorded by using a polarizing microscope and a high-speed camera. The hot-cold stage was sealed to ensure that the internal humidity was about 50%.

[2] = Ice topography (DIS) observation and thermal hysteresis (TH) measurement, nanoliter osmometer; type: physicochemical; conditions: deionized aqueous solution; for thermal hysteresis (TH): nanoliter osmometer; for modification effect on the topography of ice crystals (DIS observation): supercooling degree of −0.1 °C
Procedure: DIS observation and TH measurement were performed by using a nanoliter osmometer. A capillary was first melt with the outer flame of a alcohol burner, and simultaneously stretched to produce a capillary with a very fine pore size, and the capillary was then linked to a microsyringe; an immersion oil with higher viscosity was injected into a disk with micron-sized holes, and an aqueous solution in which the material was dissolved was injected into the microholes by using a microsyringe; the droplet was quickly frozen by regulating the temperature, and then slowly heated to give a single crystal ice, the single crystal ice was slowly cooled at the precision of 0.01° C., and the DIS observation and TH test were performed by using a microscope provided with a high-speed camera.

CC(O)C(NC(=O)[C@@H](O)[C@H](O)[C@@H](O)[C@@H](O)CO)C(=O)O (stereo partly drawn) [GDL-L-Thr]
MLGS (%) relative to that of DPBS, compared with the unbound components [1]: obviously smaller than those of the DPBS solutions of GDL and amino acids at the same concentration
ability to inhibit the growth of ice crystals ([1]; result in words): good capability of inhibiting the growth of ice crystals
thermal hysteresis (TH) [2]: No TH was determined
modification effect on the topography of ice crystals (DIS observation) [2]: weak modification effect on the topography of ice crystals

C[C@@H](O)[C@H](N)C(=O)N[C@@H](CCCNC(=N)N)C(=O)O [TR, L-Thr-L-Arg] (H-Thr-Arg-OH)
MLGS (%) relative to that of DPBS, compared with the unbound components [1]: obviously smaller than that of the DPBS solutions of arginine and threonine at the same concentration
thermal hysteresis (TH) [2]: No TH was determined
modification effect on the topography of ice crystals (DIS observation) [2]: weak modification effect on the topography of ice crystals

NC(=O)CN(CCC(=O)O)C(=O)CN(CCC(=O)O)C(=O)CN(CCC(=O)O)C(=O)CN(CCC(=O)O)C(=O)CN(CCC(=O)O)C(=O)CNCCC(=O)O [peptoid where R was —CH2CH2COOH]
modification effect on the topography of ice crystals (DIS observation) [2]: no modification effect on the topography of ice crystals

CCNCC(=O)N(CC)CC(=O)N(CC)CC(=O)N(CC)CC(=O)N(CC)CC(=O)N(CC)CC(N)=O [peptoid where R was —CH2CH3]
thermal hysteresis (TH) [2]: no TH
modification effect on the topography of ice crystals (DIS observation) [2]: rather obvious modification effects on the topography of ice crystals
modification effect on the topography of ice crystals (DIS observation) ([2]; listed as compound of formula (9) where R is —CH2CH3): excellent modification effect on the topography of ice crystals

CNCC(=O)N(C)CC(=O)N(C)CC(=O)N(C)CC(=O)N(C)CC(=O)N(C)CC(N)=O [peptoid where R was —CH3]
thermal hysteresis (TH) [2]: no TH
modification effect on the topography of ice crystals (DIS observation) [2]: rather obvious modification effects on the topography of ice crystals
modification effect on the topography of ice crystals (DIS observation) ([2]; listed as compound of formula (9) where R is —CH3): excellent modification effect on the topography of ice crystals

GDL-L-Ser
MLGS (%) relative to that of DPBS, compared with the unbound components [1]: obviously smaller than those of the DPBS solutions of GDL and amino acids at the same concentration

GDL-L-Val
MLGS (%) relative to that of DPBS, compared with the unbound components [1]: obviously smaller than those of the DPBS solutions of GDL and amino acids at the same concentration
